We go through two molecules from patent US11980621B2, “Gonadotropin-releasing hormone antagonist dosing regimens for the treatment of endometriosis” (ObsEva S.A., priority 2017, dated 2024).

The target in one series is T1, human GnRH receptor (Homo sapiens, UniProt P30968).
T1 sequence (P30968 1-328): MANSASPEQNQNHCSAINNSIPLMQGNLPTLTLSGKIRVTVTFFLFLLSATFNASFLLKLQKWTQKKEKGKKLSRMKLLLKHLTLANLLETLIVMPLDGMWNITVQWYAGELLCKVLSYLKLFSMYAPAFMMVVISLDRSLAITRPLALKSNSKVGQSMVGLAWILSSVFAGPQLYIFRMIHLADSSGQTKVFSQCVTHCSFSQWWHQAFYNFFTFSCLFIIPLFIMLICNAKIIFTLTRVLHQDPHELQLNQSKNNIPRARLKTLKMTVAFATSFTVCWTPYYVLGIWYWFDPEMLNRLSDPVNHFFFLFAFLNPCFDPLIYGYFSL
The series is described as follows: affinity for human GnRH receptor. The conditions noted are these: type of constant (Ki/IC50/Kd) not stated. The series is classed as binding.

For series [1], the system named is various animal models of endometriosis. Nature of the series: animal models of endometriosis. It is filed as in vivo.
A further series concerns Japanese women. Nature of the series: daily dosing in Japanese women (LH, E2, endometriosis-associated pain, safety). The series is classed as in vivo, human. To be noted: doses between 50 and 200 mg daily.
Series [2] concerns human female patients having endometriosis. Nature of the series: 12-week oral treatment of endometriosis patients grouped by initial serum AMH; serum E2 concentration. The series is classed as in vivo. The method, then:
In order to investigate the effects of GnRH antagonists, such as compound (I), (II), and pharmaceutically acceptable salts thereof, such as the choline salt thereof (compound (III)), on endometriosis patients presenting with distinct initial values of serum AMH, a series of experiments was conducted in which patients were divided into multiple treatment arms and orally administered either compound (III) or a placebo. Specifically, a series of n=327 human female patients having endometriosis were divided into five groups, and received either placebo, 50 mg/day of compound (III), 75 mg/day of compound (III), 100 mg/day of compound (III), or 200 mg/day of compound (III) by oral delivery. Treatment with the placebo or compound (III) at the doses specified above occurred continuously over a period of 12 weeks. At various time points throughout these experiments, patients were evaluated for their serum E2 concentration. As described herein, an objective of endometriosis therapy utilizing a GnRH antagonist is to suppress serum E2 values to within a range of from about 20 pg/ml to about 50 pg/ml or lower. Alleviation of endometriosis symptoms correlates with a reduction of serum E2, and achieving serum E2 levels that are either within this range or below are indicators of successful endometriosis treatment. To analyze the response of patients presenting with different initial AMH serum concentrations, patients were further divided into groups based on initial AMH serum level. These groups included patients having initial AMH serum concentrations of less than 15 pM, from 15 pM to 35 pM, or greater than 35 pM prior to commencing treatment with the GnRH antagonist.

With `COc1cc(F)c(-n2c(=O)[nH]c3csc(C(=O)O)c3c2=O)cc1OCc1c(OC)ccc(F)c1F` [Compound (II), 3-[2-fluoro-5-(2,3-difluoro-6-methoxybenzyloxy)4-methoxyphenyl]-2,4-dioxo-1,2,3,4-tetrahydrothieno[3,4d]pyrimidine-5-carboxylic acid], at human GnRH receptor, the “affinity for human GnRH receptor” value is given as 27.4 nM. In series [1], the E2 secretion result was “significantly suppressing”, the “serum LH concentration” value is recorded as “significantly suppressing” and the “size of endometriotic lesions” value is “significantly suppressing”. Also, in the series with Japanese women, the endometriosis-associated pain entry is “significantly reduce”; the “luteinizing hormone (LH)” value is recorded as “suppress”; the “safety and tolerability profile” value was “good safety and tolerability profile”; the “β17-estradiol (E2)” value is “suppress”.
As for `COc1cc(F)c(-n2c(=O)[nH]c3csc(C(=O)O)c3c2=O)cc1OCc1c(OC)ccc(F)c1F` [compound (III), choline 3-[2-fluoro-5-(2,3-difluoro-6-methoxybenzyloxy)4-methoxyphenyl]-2,4-dioxo-1,2,3,4-tetrahydrothieno[3,4d]pyrimidine-5-carboxylate], the “serum E2 concentration” value in series [2] (50 mg/day, 12-week treatment period, initial AMH serum concentration less than 15 pM (FIG. 1)) is given as “achieve a reduction in serum E2 concentration”. Besides, the “suppression of serum E2 concentration” value in series [2] (higher dosages, such as 100 mg/day and 200 mg/day, patients with higher initial serum AMH levels (FIG. 3)) is reported as “generally required for suppression of serum E2 concentration”. The “serum E2” value in series [2] (various daily doses, oral, 12 weeks, initial serum AMH from 15 pM to 35 pM (FIG. 2)) is “dose-dependent suppression”; in series [2] (various daily doses, oral, 12 weeks, initial serum AMH greater than 35 pM (FIG. 3)) it was “dose-dependent suppression”. In addition, the “serum β17-estradiol (E2)” value in series [2] (various daily doses, oral, 12 weeks, initial serum AMH less than 15 pM (FIG. 1)) is given as “dose-dependent suppression”.
